The values below come from patent US12171801B2, “Compositions and related methods for controlling vector-borne diseases” (priority 2017, dated 2024).

One experiment relates to Asaia. In words: Asaia quantification by qPCR in midguts of azithromycin blood-fed mosquitoes. Particulars: azithromycin 0.1, 1 or 5 μg/ml in blood meals; midgut. The class given is in vivo, Anopheles coluzzii. The procedure: Therapeutic design: Blood meals mixed with azithromycin solutions are formulated with final antibiotic concentrations of 0 (negative control), 0.1, 1, or 5 μg/ml in 1 mL of blood.
Azithromycin solutions are made by dissolving azithromycin (SIGMA-ALDRICH, PZ0007) in DMSO. Different volumes of azithromycin solution are added to fresh blood to total 1 mL in preparation for blood meals. The final azithromycin concentrations in the blood are 0 (just solvent as control solution), 0.1, 1, or 5 μg/ml.
For each Plasmodium infection, at least 100 age-matched, 2- to 3-day-old, mosquitoes per condition are offered a control or experimental blood meal from a membrane-feeding device (2 ml Eppendorf tube) covered with parafilm and kept at 37° C. and nonengorged mosquitoes are removed. Meals are given every four days for a total of three blood meals. […] Deaths are counted daily and carcasses are removed and stored for Asaia analysis as described herein. […]
Before dissection, mosquitoes are immersed in 70% ethanol for 5 minutes then rinsed 3 times in sterile phosphate-buffered saline (PBS) to kill and remove surface bacteria, thus minimizing sample contamination with cuticle bacteria during dissection. […] The 16S ribosomal DNA (rDNA) is used for Asaia quantification and is shown as a ratio of the Anopheles housekeeping gene 40S ribosomal protein S7 (Vector-Base gene ID AGAP010592). […]
For orientation: Quantitative PCR measures a nucleic acid by following its amplification.

Experiment [1] relates to Anopheles coluzzii mosquitoes. The experiment can be described thus: Survival of mosquitoes given azithromycin blood meals. The class given is in vivo. Conditions: azithromycin 0.1, 1 or 5 μg/ml in blood meals. The procedure: For each Plasmodium infection, at least 100 age-matched, 2- to 3-day-old, mosquitoes per condition are offered a control or experimental blood meal from a membrane-feeding device (2 ml Eppendorf tube) covered with parafilm and kept at 37° C. and nonengorged mosquitoes are removed. Meals are given every four days for a total of three blood meals. Between the blood meals, mosquitoes are provided with a cotton pad moistened with distilled water for oviposition. Unfed mosquitoes are not removed after the second and later blood meals. Deaths are counted daily and carcasses are removed and stored for Asaia analysis as described herein. At least 50 mosquitoes per concentration of azithromycin are used for each replicate. At the end of the last blood meal, mosquitoes are kept for 12 hours before dissection.
The survival rates of mosquitoes treated with azithromycin are compared to the mosquitoes treated with the negative control.

In experiment [2] the test system is Acyrthosiphon pisum aphids. In words: Aphid survival monitoring. The format is in vivo.
Experiment [3] has as its system Acyrthosiphon pisum aphids. The experiment can be described thus: Aphid developmental stage monitoring. Particulars: for aphids that did not mature further than the 4rd instar stage: 11 days post-treatment. The format is in vivo. The procedure:
(§1) In addition, the developmental stage (1st, 2nd, 3rd, 4th, 5th instar) was determined daily throughout the experiment. Once an aphid reached the 4th instar stage, they were given their own artificial feeding system in a deep petri dish so that fecundity could be monitored once they reached adulthood.
Each treatment group received approximately the same number of individuals from each of the collection plant. For each treatment, 20 aphids were placed onto each leaf. Aphids were monitored daily for survival and dead aphids were removed when they were discovered. In addition, the developmental stage (1st, 2nd, 3rd, 4th, 5th instar, and 5 R, representing a reproducing 5th instar) was determined daily throughout the experiment. Pictures of aphids were taken throughout the experiment to evaluate size differences between treatment groups.
Aphids LSR-1 (which harbor only Buchnera), Acyrthosiphon pisum were grown on fava bean plants (Vroma vicia faba from Johnny's Selected Seeds) in a climate-controlled incubator (16 h light/8 h dark photoperiod; 60±5% RH; 25±2° C.). Prior to being used for aphid rearing, fava bean plants were grown in potting soil at 24° C. with 16 h of light and 8 h of darkness. To limit maternal effects or health differences between plants, 5-10 adults from different plants were distributed among 10 two-week-old plants, and allowed to multiply to high density for 5-7 days. For experiments, first and second instar aphids were collected from healthy plants and divided into 2 different treatment groups: 1) negative control (leaf injected with water plus blue food coloring) and 2) leaf injected with 50 μg/ml rifampicin in water plus blue food coloring. Each treatment group received approximately the same number of individuals from each of the collection plants. For treatment, rifampicin stock solution (25 mg/ml in 100% methanol) was diluted to 50 μg/ml in water plus blue food coloring. The solution was then placed into a 1.5 ml Eppendorf tube with a fava bean stem perfused with the solutions and the opening of the tube was closed using parafilm. This feeding system was then placed into a deep petri dish (Fisher Scientific, Cat #FB0875711) and aphids were applied to the leaves of the plant. For each treatment, 74-81 aphids were placed onto each leaf. The feeding systems were changed every 2-3 days throughout the experiment. Aphids were monitored daily for survival and dead aphids were removed from the deep petri dish when they were discovered. In addition, the developmental stage (1st, 2nd, 3rd, 4th, 5th and 5 R (5th that has reproduced) instar) was determined daily throughout the experiment.
In addition, the developmental stage (1st 2nd, 3rd, 4th, 5th and 5 R (5th that has reproduced) instar) was determined daily throughout the experiment.
(§2) In addition, the developmental stage (1st, 2nd, 3rd, 4th, 5th, and 5 R (5th that has reproduced) instar) was determined daily throughout the experiment.
In addition, the developmental stage (1st, 2nd, 3rd, 4th, 5th and 5 R (5th that has reproduced) instar) was determined daily throughout the experiment.
In addition, the developmental stage (1st, 2nd, 3rd, 4th, 5th, and 5 R (5th instar aphids that are reproducing) instar) was determined daily throughout the experiment.
In addition, the developmental stage (1st, 2nd, 3rd 4th and 5th instar) was determined daily throughout the experiment.
(§3) In addition, the developmental stage (1st, 2nd, 3rd, 4th, 5th, and 5 R (5th that has reproduced) instar) was determined daily throughout the experiment. Once an aphid reached the 4th instar stage, they were given their own artificial feeding system in a deep petri dish so that fecundity could be monitored once they reached adulthood.
as §2

Experiment [4] has as its system Acyrthosiphon pisum aphids. In words: Aphid fecundity. Particulars: 10 or 100 uM. The format is in vivo. The procedure: as §1
(§4) For adult aphids, new nymphs were counted daily and then discarded. At the end of the experiments, fecundity was determined as the mean number of offspring produced daily once the aphid reached adulthood. Pictures of aphids were taken throughout the experiment to evaluate size differences between treatment groups.
as §3
(§5) For adult aphids, new nymphs were counted daily and then discarded. At the end of the experiments, fecundity was measured in two ways: 1) the mean day at which the first offspring for the treatment group was determined and 2) the mean number of offspring produced daily once the aphid reached adulthood. […]
In addition, the developmental stage (1st, 2nd, 3rd, 4th, 5th instar) was determined daily throughout the experiment. […]

The test system of another experiment is Buchnera. In words: Buchnera/aphid DNA copy number by qPCR. The class given is in vivo, Acyrthosiphon pisum.
Experiment [5] relates to Acyrthosiphon pisum aphids. The experiment can be described thus: Aphid size (body area) from images. The format is in vivo. Particulars: 10 or 100 uM in artificial diet, 3 days post-treatment. The procedure:
as §4
Each treatment group received approximately the same number of individuals from each of the collection plant. For each treatment, 20 aphids were placed onto each leaf. Aphids were monitored daily for survival and dead aphids were removed when they were discovered. In addition, the developmental stage (1st, 2nd, 3rd, 4th, 5th instar, and 5 R, representing a reproducing 5th instar) was determined daily throughout the experiment. […]
as §5
Aphids LSR-1 (which harbor only Buchnera), Acyrthosiphon pisum were grown on fava bean plants (Vroma vicia faba from Johnny's Selected Seeds) in a climate-controlled incubator (16 h light/8 h dark photoperiod; 60±5% RH; 25±2° C.). […] Aphids were monitored daily for survival and dead aphids were removed from the deep petri dish when they were discovered. […]

For experiment [6], the system named is gram-negative and gram-positive bacteria as well as fungi. Particulars: cited from earlier work.
The mark [7] stands for this setting: leaf coating, 10 uM in 0.025% Silwet L-77.

Entries after “also recorded” stand apart in the source; their conditions may differ.

For the molecule `CC[C@H]1OC(=O)[C@H](C)[C@@H](O[C@H]2C[C@@](C)(OC)[C@@H](O)[C@H](C)O2)[C@H](C)[C@@H](O[C@@H]2O[C@H](C)C[C@H](N(C)C)[C@H]2O)[C@](C)(O)C[C@@H](C)CN(C)[C@H](C)[C@@H](O)[C@]1(C)O` [azithromycin], the “Asaia specific genes (16S rDNA qPCR, ratio to S7)” value in the experiment with Asaia is listed as “reduction of Asaia specific genes”. In experiment [1], the “survival rate of mosquitoes” value was “decreased compared to the control”.
Take `Cc1cc2c(C(C)C)c(O)c(O)c(C=O)c2c(O)c1-c1c(C)cc2c(C(C)C)c(O)c(O)c(C=O)c2c1O` [gossypol, gossypol acetic acid]: in experiment [2] (0.5%, through plants), the “time after which aphids began dying” value turned out to be 2 days and the “time by which all aphids succumbed to treatment” value was at most 4 days.
With `CC(=O)CCC(=O)O` [levulinic acid], the “aphids that did not mature further than the 4rd instar stage” value in experiment [3] (0.03%) is listed as around 23%; in experiment [3] (0.3%), around 63%. The aphid development entry in experiment [3] (0.03 or 0.3% in water, leaf injection and through plant, eNASCO) was “delayed aphid development”. In addition, the aphid survival result in experiment [2] (0.03%, 11-day experiment) is on record as “higher mortality compared to control treated aphids”; in experiment [2] (0.03 or 0.3%), “dose-dependent decrease in survival; also recorded: decrease in insect survival”; in experiment [2] (0.3%, 11-day experiment) it was “significantly less”.
On to `CC(C)(CO)[C@@H](O)C(=O)NCCCO` [pantothenol], for which the aphid development result was “delayed aphid development” in experiment [3] (10 or 100 uM in artificial diet without essential amino acids, through plants, eNASCO) and “did not affect aphid development” in experiment [3] (setting [7]). Moreover, the aphid survival entry in experiment [2] (10 or 100 uM in artificial diet, through plants) is listed as “increased aphid mortality; also recorded: negatively affected aphid fitness”; in experiment [2] (setting [7]) it was “lower survival rates”; in experiment [2] (leaf coating, 10 uM in 0.025% Silwet L-77, listed as Pantothenol) it was “aphid death”. Also, the aphid reproduction entry in experiment [4] was “loss of aphid reproduction”; in experiment [4] (listed as Pantothenol), “loss of reproduction”. For the same molecule, the “Buchnera/aphid DNA copies” value in the experiment on Buchnera (10 or 100 uM, 8 days) is given as “does not affect Buchnera/aphid DNA copy number directly”; with Buchnera (10 or 100 uM, 8 days, listed as Pantothenol), “did not affect endosymbiotic Buchnera”. Besides, the “aphid size (area)” value in experiment [5] is listed as “drastic effect; also recorded: smaller in area than untreated controls”.
Regarding `O=C/C=C/c1ccccc1` [trans-cinnemaldehyde], the aphid development entry in experiment [3] (0.05%, 0.5% and 5% in water, leaf perfusion and through plants, 3 days) was “delayed”; in experiment [3] (0.05%, 0.5% and 5% in water, leaf perfusion and through plants, 3 days, listed as Trans-cinnemaldehyde), “delayed aphid development”. The “aphid development (stage reached)” value in experiment [3] (5%) is on record as “remained at the 1st instar stage throughout the course of the experiment”. Also, the aphid survival entry in experiment [2] (0.05%, 0.5%, and 5%) was “dose-dependent decrease in survival; also recorded: significantly lower”. Besides, the “Buchnera/aphid DNA copies” value in the experiment on Buchnera (lowest concentration (0.5%), 3 days) is “high ratios of Buchnera/aphid DNA copies”.

B1: NCR335: NCR peptide, SEQ ID NO: 197 (peptide)
chain: MKMRIHMAQIIMFFYALIIFLSPFLVDRRSFPSSFVSPKSYTSEIPCKATRDCPYELYYETKCVDSLCTY
Consider B1, for which the antimicrobial activity entry in experiment [6] is “effective against gram-negative and gram-positive bacteria as well as fungi”.
